Patent publication US20220184008A1, “MODULATORS OF INTRACELLULAR CHLORIDE CONCENTRATION” (FONDAZIONE ISTITUTO ITALIANO DI TECNOLOGIA, priority 2019, published 2022)

Key:
[1] = Solubility in aqueous buffer; type: physicochemical; conditions: PBS, pH 7.4, aqueous buffer
Procedure: FIG. 3: Assessment of drug-likeness of a selected compound, compound 3.17. a) Chemicophysical properties of bumetanide and compound 3.17 by LC-MS analysis. b) Comparison between urinary volume of WT mice (C57Bl/6N) two hours after treatment with bumetanide (0.2 mg/kg) and compound 3.17 (0.2 mg/kg). c) Assessment of urinary volume of Ts65Dn mouse model of Down syndrome and WT littermates two hours after treatment with compound 3.17 (0.2 mg/kg). Number in parenthesis: number of analyzed animals. Data represents mean±sem, and they are presented as % of the respective vehicle.
The selected NKCC1 inhibitor compound 3.17 has been evaluated for solubility in aqueous buffers, and stability in plasma and phase I metabolism in vitro (FIG. 3a).

[2] = test system: valproic acid (VPA)-induced mouse model of autism; test: VPA-induced mouse model of autism (three-chamber, male-female interaction, marble burying, grooming); type: in vivo; conditions: VPA mice, 0.2 mg/kg i.p. seven days
Text: Right panel, quantification of the social novelty index in mice treated with vehicle (WT, n=15, VPA, n=10) or 3.17 (WT, n=9, VPA, n=12); two-way ANOVA, Tukey's post hoc test, *P<0.05, **P<0.01. (b) Quantification of the interaction time in mice treated with vehicle (WT, n=15, VPA, n=10) or 3.17 (WT, n=10, VPA, n=11); two-way ANOVA, Tukey's post hoc test, **P<0.01. (c) Quantification of the number of marbles buried by mice treated with vehicle (WT, n=17, VPA, n=17) or 3.17 (WT, n=13, VPA, n=13); two-way ANOVA, Tukey's post hoc test, *P<0.05, **P<0.01. (d) Quantification of grooming time for mice treated with vehicle (WT, n=20, VPA, n=17) or 3.17 (WT, n=13, VPA, n=13); two-way ANOVA on Ranks, Tukey's post hoc test, *P<0.05, **P<0.01.
In vivo assessment of the efficacy of the selected NKCC1 inhibitor in the valproic acid (VPA)-induced mouse model of autism, to assess its ability to rescue altered social interaction. The VPA model was obtained by treating pregnant C57bl/6j dams at 12.5 days of pregnancy with 600 mg/kg (i.p.) of VPA dissolved in PBS. […] As control, the offspring of C57bl/6j dams treated at 12.5 with PBS was used. To assess the efficacy of the compound to restore social deficits, juvenile male offspring of both the VPA- and PBS-treated dams were treated (i.p injection) with 0.2 mg/kg of compound 3.17 dissolved in PBS or 2% DMSO dissolved in PBS as control for seven days. Then, mice were tested for their social ability and for repetitive behaviors in different tests. The social ability was tested in the three-chamber test (Silverman et al., 2010). In the three-chamber test, mice are singularly placed in a three-chamber box with openings between the chambers. After ten minutes of free exploration, a never-before-met intruder is placed under one pencil cup in one chamber and an empty pencil cup was placed in the other chamber. […] The social novelty index is measured as follows: [(time spent with the new intruder−time spent with the old intruder)/(time spent with the new intruder+time spent with the old intruder) %].
The sociability during male-female interaction was then assessed (Drapeau et al., 2018). In this test the tested mouse, after 5 minutes of habituation, is evaluated for its approach to a female intruder mouse that is placed for 5 minutes in the same cage. The time spent interacting is calculated as a measure of male-female social interaction. […] Finally, repetitive behaviors were evaluated in two different tests. […] The repetitive behavior is evaluated as the number of marbles buried in the litter. […] During the test, the mouse is placed in a cylindrical support and after 10 minutes of habituation, the repetitive grooming activity is measured during 5 minutes.

solubility [1]: > 250 µM
Structure (SMILES): CN(C)S(=O)(=O)c1cc(C(=O)O)ccc1NCCCCCCCC(F)(F)F [Compound 3.17, 3-(dimethylsulfamoyl)-4-(8,8,8-trifluorooctylamino) benzoic acid]
male-female interaction [2]: completely restored | repetitive behaviors (marbles buried, grooming time) [2]: completely restored | sociability index ([2]; three-chamber test): completely restored | social novelty index ([2]; three-chamber test): completely restored
